Test results: the NIST ThermoML archive (doi:10.1021/acs.jced.8b00979)
Numbers after ± are expanded uncertainties.

Experiment: xn = mol fraction of the nth substance listed
Conditions: 100 kPa, Liquid; for viscosity: Capillary tube (Ostwald / Ubbelohde) method; for mass density: Vibrating tube method

## CCCC(C)O (stereo not given) [pentan-2-ol] + CCCCCO
288.15 K, x2 = 0
  viscosity: 5.057 ± 0.2 mPa·s
  mass density: 813.34 ± 0.79 kg/m3
288.15 K, x2 = 0.1
  viscosity: 4.988 ± 0.2 mPa·s
  mass density: 813.91 ± 0.79 kg/m3
288.15 K, x2 = 0.2
  viscosity: 4.929 ± 0.2 mPa·s
  mass density: 814.5 ± 0.79 kg/m3
288.15 K, x2 = 0.298
  viscosity: 4.881 ± 0.2 mPa·s
  mass density: 815.05 ± 0.79 kg/m3
288.15 K, x2 = 0.4
  viscosity: 4.842 ± 0.2 mPa·s
  mass density: 815.6 ± 0.79 kg/m3
288.15 K, x2 = 0.5
  viscosity: 4.806 ± 0.19 mPa·s
  mass density: 816.13 ± 0.79 kg/m3
288.15 K, x2 = 0.601
  viscosity: 4.772 ± 0.19 mPa·s
  mass density: 816.66 ± 0.79 kg/m3
288.15 K, x2 = 0.699
  viscosity: 4.741 ± 0.19 mPa·s
  mass density: 817.15 ± 0.79 kg/m3
288.15 K, x2 = 0.798
  viscosity: 4.714 ± 0.19 mPa·s
  mass density: 817.63 ± 0.79 kg/m3
288.15 K, x2 = 0.901
  viscosity: 4.697 ± 0.19 mPa·s
  mass density: 818.1 ± 0.79 kg/m3
293.15 K, x2 = 0
  viscosity: 4.174 ± 0.17 mPa·s
  mass density: 809.38 ± 0.78 kg/m3
293.15 K, x2 = 0.1
  viscosity: 4.141 ± 0.17 mPa·s
  mass density: 810 ± 0.79 kg/m3
293.15 K, x2 = 0.2
  viscosity: 4.114 ± 0.17 mPa·s
  mass density: 810.63 ± 0.79 kg/m3
293.15 K, x2 = 0.298
  viscosity: 4.095 ± 0.17 mPa·s
  mass density: 811.21 ± 0.79 kg/m3
293.15 K, x2 = 0.4
  viscosity: 4.079 ± 0.17 mPa·s
  mass density: 811.79 ± 0.79 kg/m3
293.15 K, x2 = 0.5
  viscosity: 4.065 ± 0.16 mPa·s
  mass density: 812.36 ± 0.79 kg/m3
293.15 K, x2 = 0.601
  viscosity: 4.054 ± 0.16 mPa·s
  mass density: 812.92 ± 0.79 kg/m3
293.15 K, x2 = 0.699
  viscosity: 4.047 ± 0.16 mPa·s
  mass density: 813.44 ± 0.79 kg/m3
293.15 K, x2 = 0.798
  viscosity: 4.045 ± 0.16 mPa·s
  mass density: 813.95 ± 0.79 kg/m3
293.15 K, x2 = 0.901
  viscosity: 4.044 ± 0.16 mPa·s
  mass density: 814.45 ± 0.79 kg/m3
298.15 K, x2 = 0
  viscosity: 3.398 ± 0.14 mPa·s
  mass density: 805.35 ± 0.78 kg/m3
298.15 K, x2 = 0.1
  viscosity: 3.388 ± 0.14 mPa·s
  mass density: 806.03 ± 0.78 kg/m3
298.15 K, x2 = 0.2
  viscosity: 3.382 ± 0.14 mPa·s
  mass density: 806.7 ± 0.78 kg/m3
298.15 K, x2 = 0.298
  viscosity: 3.377 ± 0.14 mPa·s
  mass density: 807.31 ± 0.78 kg/m3
298.15 K, x2 = 0.4
  viscosity: 3.373 ± 0.14 mPa·s
  mass density: 807.93 ± 0.78 kg/m3
298.15 K, x2 = 0.5
  viscosity: 3.371 ± 0.14 mPa·s
  mass density: 808.54 ± 0.78 kg/m3
298.15 K, x2 = 0.601
  viscosity: 3.377 ± 0.14 mPa·s
  mass density: 809.14 ± 0.78 kg/m3
298.15 K, x2 = 0.699
  viscosity: 3.385 ± 0.14 mPa·s
  mass density: 809.7 ± 0.78 kg/m3
298.15 K, x2 = 0.798
  viscosity: 3.402 ± 0.14 mPa·s
  mass density: 810.24 ± 0.78 kg/m3
298.15 K, x2 = 0.901
  viscosity: 3.434 ± 0.14 mPa·s
  mass density: 810.78 ± 0.79 kg/m3
303.15 K, x2 = 0
  viscosity: 2.82 ± 0.11 mPa·s
  mass density: 801.24 ± 0.78 kg/m3
303.15 K, x2 = 0.1
  viscosity: 2.815 ± 0.11 mPa·s
  mass density: 801.98 ± 0.78 kg/m3
303.15 K, x2 = 0.2
  viscosity: 2.815 ± 0.11 mPa·s
  mass density: 802.7 ± 0.78 kg/m3
303.15 K, x2 = 0.298
  viscosity: 2.819 ± 0.11 mPa·s
  mass density: 803.36 ± 0.78 kg/m3
303.15 K, x2 = 0.4
  viscosity: 2.833 ± 0.11 mPa·s
  mass density: 804.02 ± 0.78 kg/m3
303.15 K, x2 = 0.5
  viscosity: 2.852 ± 0.12 mPa·s
  mass density: 804.67 ± 0.78 kg/m3
303.15 K, x2 = 0.601
  viscosity: 2.875 ± 0.12 mPa·s
  mass density: 805.32 ± 0.78 kg/m3
303.15 K, x2 = 0.699
  viscosity: 2.901 ± 0.12 mPa·s
  mass density: 805.92 ± 0.78 kg/m3
303.15 K, x2 = 0.798
  viscosity: 2.932 ± 0.12 mPa·s
  mass density: 806.5 ± 0.78 kg/m3
303.15 K, x2 = 0.901
  viscosity: 2.974 ± 0.12 mPa·s
  mass density: 807.06 ± 0.78 kg/m3
308.15 K, x2 = 0
  viscosity: 2.336 ± 0.094 mPa·s
  mass density: 797.05 ± 0.77 kg/m3
308.15 K, x2 = 0.1
  viscosity: 2.354 ± 0.095 mPa·s
  mass density: 797.85 ± 0.77 kg/m3
308.15 K, x2 = 0.2
  viscosity: 2.373 ± 0.096 mPa·s
  mass density: 798.63 ± 0.78 kg/m3
308.15 K, x2 = 0.298
  viscosity: 2.392 ± 0.097 mPa·s
  mass density: 799.35 ± 0.78 kg/m3
308.15 K, x2 = 0.4
  viscosity: 2.416 ± 0.098 mPa·s
  mass density: 800.06 ± 0.78 kg/m3
308.15 K, x2 = 0.5
  viscosity: 2.442 ± 0.099 mPa·s
  mass density: 800.76 ± 0.78 kg/m3
308.15 K, x2 = 0.601
  viscosity: 2.472 ± 0.1 mPa·s
  mass density: 801.45 ± 0.78 kg/m3
308.15 K, x2 = 0.699
  viscosity: 2.504 ± 0.1 mPa·s
  mass density: 802.11 ± 0.78 kg/m3
308.15 K, x2 = 0.798
  viscosity: 2.54 ± 0.1 mPa·s
  mass density: 802.74 ± 0.78 kg/m3
308.15 K, x2 = 0.901
  viscosity: 2.587 ± 0.1 mPa·s
  mass density: 803.33 ± 0.78 kg/m3
313.15 K, x2 = 0
  viscosity: 1.99 ± 0.08 mPa·s
  mass density: 792.78 ± 0.77 kg/m3
313.15 K, x2 = 0.1
  viscosity: 2.016 ± 0.081 mPa·s
  mass density: 793.65 ± 0.77 kg/m3
313.15 K, x2 = 0.2
  viscosity: 2.039 ± 0.082 mPa·s
  mass density: 794.49 ± 0.77 kg/m3
313.15 K, x2 = 0.298
  viscosity: 2.063 ± 0.083 mPa·s
  mass density: 795.28 ± 0.77 kg/m3
313.15 K, x2 = 0.4
  viscosity: 2.09 ± 0.084 mPa·s
  mass density: 796.05 ± 0.77 kg/m3
313.15 K, x2 = 0.5
  viscosity: 2.119 ± 0.086 mPa·s
  mass density: 796.8 ± 0.77 kg/m3
313.15 K, x2 = 0.601
  viscosity: 2.152 ± 0.087 mPa·s
  mass density: 797.54 ± 0.77 kg/m3
313.15 K, x2 = 0.699
  viscosity: 2.188 ± 0.088 mPa·s
  mass density: 798.25 ± 0.77 kg/m3
313.15 K, x2 = 0.798
  viscosity: 2.226 ± 0.09 mPa·s
  mass density: 798.92 ± 0.77 kg/m3
313.15 K, x2 = 0.901
  viscosity: 2.272 ± 0.092 mPa·s
  mass density: 799.56 ± 0.78 kg/m3
318.15 K, x2 = 0
  viscosity: 1.706 ± 0.069 mPa·s
  mass density: 788.42 ± 0.77 kg/m3
318.15 K, x2 = 0.1
  viscosity: 1.726 ± 0.07 mPa·s
  mass density: 789.37 ± 0.77 kg/m3
318.15 K, x2 = 0.2
  viscosity: 1.751 ± 0.071 mPa·s
  mass density: 790.29 ± 0.77 kg/m3
318.15 K, x2 = 0.298
  viscosity: 1.778 ± 0.072 mPa·s
  mass density: 791.13 ± 0.77 kg/m3
318.15 K, x2 = 0.4
  viscosity: 1.809 ± 0.073 mPa·s
  mass density: 791.96 ± 0.77 kg/m3
318.15 K, x2 = 0.5
  viscosity: 1.842 ± 0.074 mPa·s
  mass density: 792.77 ± 0.77 kg/m3
318.15 K, x2 = 0.601
  viscosity: 1.878 ± 0.076 mPa·s
  mass density: 793.58 ± 0.77 kg/m3
318.15 K, x2 = 0.699
  viscosity: 1.916 ± 0.077 mPa·s
  mass density: 794.34 ± 0.77 kg/m3
318.15 K, x2 = 0.798
  viscosity: 1.956 ± 0.079 mPa·s
  mass density: 795.06 ± 0.77 kg/m3
318.15 K, x2 = 0.901
  viscosity: 1.997 ± 0.081 mPa·s
  mass density: 795.75 ± 0.77 kg/m3
323.15 K, x2 = 0
  viscosity: 1.472 ± 0.06 mPa·s
  mass density: 783.99 ± 0.76 kg/m3
323.15 K, x2 = 0.1
  viscosity: 1.498 ± 0.061 mPa·s
  mass density: 785.02 ± 0.76 kg/m3
323.15 K, x2 = 0.2
  viscosity: 1.522 ± 0.062 mPa·s
  mass density: 786.01 ± 0.76 kg/m3
323.15 K, x2 = 0.298
  viscosity: 1.546 ± 0.062 mPa·s
  mass density: 786.92 ± 0.76 kg/m3
323.15 K, x2 = 0.4
  viscosity: 1.575 ± 0.064 mPa·s
  mass density: 787.82 ± 0.77 kg/m3
323.15 K, x2 = 0.5
  viscosity: 1.607 ± 0.065 mPa·s
  mass density: 788.69 ± 0.77 kg/m3
323.15 K, x2 = 0.601
  viscosity: 1.642 ± 0.066 mPa·s
  mass density: 789.56 ± 0.77 kg/m3
323.15 K, x2 = 0.699
  viscosity: 1.679 ± 0.068 mPa·s
  mass density: 790.38 ± 0.77 kg/m3
323.15 K, x2 = 0.798
  viscosity: 1.718 ± 0.069 mPa·s
  mass density: 791.17 ± 0.77 kg/m3
323.15 K, x2 = 0.901
  viscosity: 1.762 ± 0.071 mPa·s
  mass density: 791.88 ± 0.77 kg/m3
328.15 K, x2 = 0
  viscosity: 1.306 ± 0.053 mPa·s
  mass density: 779.46 ± 0.76 kg/m3
328.15 K, x2 = 0.1
  viscosity: 1.317 ± 0.053 mPa·s
  mass density: 780.57 ± 0.76 kg/m3
328.15 K, x2 = 0.2
  viscosity: 1.335 ± 0.054 mPa·s
  mass density: 781.64 ± 0.76 kg/m3
328.15 K, x2 = 0.298
  viscosity: 1.359 ± 0.055 mPa·s
  mass density: 782.65 ± 0.76 kg/m3
328.15 K, x2 = 0.4
  viscosity: 1.387 ± 0.056 mPa·s
  mass density: 783.63 ± 0.76 kg/m3
328.15 K, x2 = 0.5
  viscosity: 1.418 ± 0.057 mPa·s
  mass density: 784.57 ± 0.76 kg/m3
328.15 K, x2 = 0.601
  viscosity: 1.45 ± 0.059 mPa·s
  mass density: 785.5 ± 0.76 kg/m3
328.15 K, x2 = 0.699
  viscosity: 1.486 ± 0.06 mPa·s
  mass density: 786.38 ± 0.76 kg/m3
328.15 K, x2 = 0.798
  viscosity: 1.524 ± 0.062 mPa·s
  mass density: 787.22 ± 0.76 kg/m3
328.15 K, x2 = 0.901
  viscosity: 1.564 ± 0.063 mPa·s
  mass density: 787.98 ± 0.76 kg/m3
